Measured values from ChEMBL document CHEMBL3044763, “Inhibitory Activities of Rhodanine Derivatives on Plant Growth” (Biosci Biotechnol Biochem, 1996).

Assays:
[1] = Toxicity in Mus musculus ddY (mouse) assessed as mortality at 5 mg/kg, ip after 6 days; type: organism-based; design: dose 5 mg/kg, route intraperitoneal; details: in vivo
[2] = tested on: Echinochloa esculenta; assay: Growth inhibition of Echinochloa esculenta assessed as root growth at 5 x 10^-5 M after 7 days; type: functional
[3] = tested on: Brassica rapa subsp. oleifera; assay: Growth inhibition of Brassica rapa subsp. oleifera assessed as chlorophyll a level at 5 x 10^-5 M after 7 days; type: functional; design: scale not given: the % may be the effect or the level left
[4] = tested on: Echinochloa esculenta; assay: Growth inhibition of Echinochloa esculenta assessed as root growth at 3 x 10^-5 M after 7 days; type: functional
[5] = tested on: Sesamum indicum; assay: Growth inhibition of Sesamum indicum (sesame) assessed as root growth at 1 x 10^-5 M after 7 days; type: functional
[6] = tested on: Brassica rapa subsp. oleifera; assay: Growth inhibition of Brassica rapa subsp. oleifera assessed as total chlorophyll level at 1 x 10^-4 M after 7 days; type: functional; design: scale not given: the % may be the effect or the level left
[7] = tested on: Lactuca sativa; assay: Growth inhibition of Lactuca sativa (lettuce) assessed as root growth at 3 x 10^-5 M after 7 days; type: functional
[8] = tested on: Brassica rapa subsp. oleifera; assay: Growth inhibition of Brassica rapa subsp. oleifera assessed as chlorophyll a level at 1 x 10^-4 M after 7 days; type: functional; design: scale not given: the % may be the effect or the level left
[9] = Toxicity in Mus musculus ddY (mouse) assessed as mortality at 6 mg/kg, ip after 3 days; type: organism-based; design: dose 6 mg/kg, route intraperitoneal; details: in vivo
[10] = Toxicity in Mus musculus ddY (mouse) assessed as mortality at 8 mg/kg, ip after 2 days; type: organism-based; design: dose 8 mg/kg, route intraperitoneal; details: in vivo
[11] = Toxicity in Mus musculus ddY (mouse) assessed as mortality at 7 mg/kg, ip after 3 days; type: organism-based; design: dose 7 mg/kg, route intraperitoneal; details: in vivo
[12] = Toxicity in Mus musculus ddY (mouse) assessed as mortality at 6 mg/kg, ip after 2 days; type: organism-based; design: dose 6 mg/kg, route intraperitoneal; details: in vivo
[13] = Toxicity in Mus musculus ddY (mouse) assessed as mortality at 4 mg/kg, ip after 4 days; type: organism-based; design: dose 4 mg/kg, route intraperitoneal; details: in vivo
[14] = tested on: Daucus carota; assay: Growth inhibition of Daucus carota (carrot) assessed as root growth at 3 x 10^-4 M after 7 days; type: functional
[15] = tested on: Brassica rapa subsp. oleifera; assay: Growth inhibition of Brassica rapa subsp. oleifera assessed as total chlorophyll level at 5 x 10^-5 M after 7 days; type: functional; design: scale not given: the % may be the effect or the level left
[16] = Toxicity in Mus musculus ddY (mouse) assessed as mortality at 4 mg/kg, ip after 1 day; type: organism-based; design: dose 4 mg/kg, route intraperitoneal; details: in vivo
[17] = tested on: Lactuca sativa; assay: Growth inhibition of Lactuca sativa (lettuce) assessed as root growth at 1 x 10^-4 M after 7 days; type: functional
[18] = Toxicity in Mus musculus ddY (mouse) assessed as mortality at 3 mg/kg, ip after 4 days; type: organism-based; design: dose 3 mg/kg, route intraperitoneal; details: in vivo
[19] = Toxicity in Mus musculus ddY (mouse) assessed as mortality at 7 mg/kg, ip after 1 day; type: organism-based; design: dose 7 mg/kg, route intraperitoneal; details: in vivo
[20] = Toxicity in Mus musculus ddY (mouse) assessed as mortality at 8 mg/kg, ip after 3 days; type: organism-based; design: dose 8 mg/kg, route intraperitoneal; details: in vivo
[21] = Toxicity in Mus musculus ddY (mouse) assessed as mortality at 8 mg/kg, ip after 5 days; type: organism-based; design: dose 8 mg/kg, route intraperitoneal; details: in vivo
[22] = tested on: Daucus carota; assay: Growth inhibition of Daucus carota (carrot) assessed as root growth at 5 x 10^-5 M after 7 days; type: functional
[23] = tested on: Allium tuberosum; assay: Growth inhibition of Allium tuberosum assessed as root growth at 5 x 10^-5 M after 10 days; type: functional
[24] = tested on: Brassica rapa subsp. oleifera; assay: Growth inhibition of Brassica rapa subsp. oleifera assessed as chlorophyll b level at 5 x 10^-5 M after 7 days; type: functional; design: scale not given: the % may be the effect or the level left
[25] = Toxicity in Mus musculus ddY (mouse) assessed as mortality at 8 mg/kg, ip after 7 days; type: organism-based; design: dose 8 mg/kg, route intraperitoneal; details: in vivo
[26] = Toxicity in Mus musculus ddY (mouse) assessed as mortality at 7 mg/kg, ip after 6 days; type: organism-based; design: dose 7 mg/kg, route intraperitoneal; details: in vivo
[27] = tested on: Brassica rapa subsp. oleifera; assay: Growth inhibition of Brassica rapa subsp. oleifera assessed as root growth at 3 x 10^-5 M after 7 days; type: functional

**Q.** For `NN1C(=O)CSC1=S` [AMINORHODANINE], which mortality at 144 h [1] is on record?
**A.** 60%

**Q.** And the Activity [2]?
**A.** 11.2 mm

**Q.** And the Activity [3]?
**A.** 9.22%

**Q.** What about the Activity [4] of the same compound?
**A.** 16 mm

**Q.** And the Activity [5]?
**A.** 6.8 mm

**Q.** What about the Activity [6] of the same compound?
**A.** 11.85%

**Q.** What about the Activity [7] of the same compound?
**A.** 6.1 mm

**Q.** What about the Activity [8] of the same compound?
**A.** 8.05%

**Q.** And the mortality at 72 h [9]?
**A.** 60%

**Q.** What about the mortality at 48 h [10] of the same compound?
**A.** 100%

**Q.** What about the mortality at 72 h [11] of the same compound?
**A.** 80%

**Q.** And the mortality at 48 h [12]?
**A.** 60%

**Q.** What about the mortality at 96 h [13] of the same compound?
**A.** 20%

**Q.** And the Activity [14]?
**A.** 0 mm

**Q.** What about the Activity [15] of the same compound?
**A.** 13.57%

**Q.** And the mortality at 24 h [16]?
**A.** 20%

**Q.** And the Activity [17]?
**A.** 3.2 mm

**Q.** What about the mortality at 96 h [18] of the same compound?
**A.** 0%

**Q.** And the mortality at 24 h [19]?
**A.** 80%

**Q.** And the mortality at 72 h [20]?
**A.** 100%

**Q.** What about the mortality at 120 h [21] of the same compound?
**A.** 100%

**Q.** What about the Activity [22] of the same compound?
**A.** 10.8 mm

**Q.** And the Activity [23]?
**A.** 8.6 mm

**Q.** What about the Activity [24] of the same compound?
**A.** 4.36%

**Q.** And the mortality at 168 h [25]?
**A.** 100%

**Q.** And the mortality at 144 h [26]?
**A.** 80%

**Q.** What about the Root length [27] of the same compound?
**A.** 30.8 mm
